Source: patent US12419900B2, “Induction of synthetic lethality with epigenetic therapy” (The Johns Hopkins University, priority 2017, dated 2025)

Assays:
[1] = system: DU145 prostate cancer cells; assay: Alamar blue cell viability and growth, alisertib x decitabine dose matrix; type: cell-based; details: DU145; for Percent Growth Inhibition: Alisertib 0 nM
Protocol: DU145 prostate cancer cells and A549 lung cancer cells were treated with varying concentrations (0 nM, 10 nM, 50 nM, and 100 nM) of alisertib in addition to varying concentrations of decitabine (0 nM, 50 nM, 100 nM, and 250 nM). Representative data are shown in FIGS. 2A and 2B, as well as the Tables below. […] In each panel, a dose response of each drug alone and in combination was used in Alamar blue cell viability assays. […] Formal synergy analyses were performed using the Bliss independence score (where values greater than zero indicate greater than additive effect). […] The graph of FIG. 2A is a growth curve of the DU145 prostate cancer cells for the agents alone (decitabine and alisertib separately), a vehicle control, and the agents in combination (decitabine and alisertib together). […] Likewise, the graph of FIG. 2B is a growth curve of the A549 lung cancer cells for the agents alone (decitabine and alisertib separately), a vehicle control, and the agents in combination (decitabine and alisertib together). […] The synergy analysis of the combination of decitabine and alisertib was evaluated in a series of 18 cancer cell lines (9 prostate, 1 ovarian, 1 lung, 2 colon, 2 central nervous system, and 3 breast cancer cell lines) and 2 non-cancer cell models.

[2] = system: Satellite 2 sequences; assay: Bisulfite genomic sequencing of repetitive elements; type: cell-based; details: DU145; vehicle control 45.09%
[3] = system: DNMT1; assay: Protein levels in DU145 cells (data not shown); type: cell-based
[4] = system: primary hepatocytes; assay: Cell viability and growth, alisertib x decitabine dose matrix; type: cell-based; details: Alisertib 0 nM
Protocol: The synergy analysis of the combination of decitabine and alisertib was evaluated in a series of 18 cancer cell lines (9 prostate, 1 ovarian, 1 lung, 2 colon, 2 central nervous system, and 3 breast cancer cell lines) and 2 non-cancer cell models. A final cumulative Bliss synergy score was calculated based on the sum of the synergy values from each of the 16 combinations of 0 nM, 10 nM, 50 nM, and 100 nM of alsertib together with 0 nM, 50 nM, 100 nM, and 250 nM of decitabine.

[5] = system: DU145 xenograft tumor; assay: In vivo xenograft study of DU145, decitabine and alisertib; parameters: species or system nude mice; details: for Fold Change in Tumor Size, Mean: DAC 0.75 mg/kg alone
Protocol: Using in vivo xenograft studies of the DU145 prostate cancer cell line, the effect was explored of the treatment of two dose levels of alisertib alone or in combination with decitabine using two different treatment time schedules over a period of seven weeks. First, nude mice were inoculated with DU145 cells that were allowed to incubate for 10-12 days to establish xenograft tumor. The inoculated mice were then treated concomitantly with both a high dose and a low dose of alisertib and decitabine in the first two weeks or primed with decitabine alone for two weeks followed by alisertib alone in the first cycle. The dose of decitabine was held constant at 0.75 mg/kg and given with either low-dose (15 mg/kg) or high-dose (25 mg/kg) alisertib, as indicated in FIG. 4. The cumulative number of doses of decitabine and alisertib was the same in all combination treatment arms in both schedules.

[6] = system: Aurora Kinase A (AURKA); assay: Western Blot in DU145 cells; type: cell-based; details: 100 nM decitabine, 100 nM alisertib
Protocol: Western Blot analyses for AURKA were performed on DU145 cell tissue sample treated with vehicle control; 100 nM alisertib alone; 100 nM decitabine alone; and 100 nM of decitabine in combination with 100 nM of alisertib.

[7] = system: residual xenograft tumors; assay: KI-67 and Caspase 3A staining of residual xenograft tumors; type: in vivo, nude mice; details: decitabine pre-treatment experiment
From the text: The proliferative index and apoptotic fraction in residual xenograft tumors from the decitabine pre-treatment experiment was then examined. Sample cells from each of the vehicle control, decitabine pre-treatment alone, alisertib alone, and decitabine pretreatment in combination with alisertib were stained with either KI-67 or Caspase 3A.

[8] = system: DNMT3B; assay: Western Blot in DU145 cells; type: cell-based; details: 100 nM decitabine, 100 nM alisertib
Protocol: DNA methyltransferase enzymes comprise a family of enzymes including DNMT1, DNMT3A, and DNMT3B. […] In this study, Western Blot analyses for DNMT3B were performed on DU145 cell tissue sample treated with vehicle control; 100 nM alisertib alone; 100 nM decitabine alone; and 100 nM of decitabine in combination with 100 nM of alisertib.

[9] = system: A549 lung cancer cells; assay: Alamar blue cell viability and growth, alisertib x decitabine dose matrix; type: cell-based; details: Alisertib 0 nM
Protocol: DU145 prostate cancer cells and A549 lung cancer cells were treated with varying concentrations (0 nM, 10 nM, 50 nM, and 100 nM) of alisertib in addition to varying concentrations of decitabine (0 nM, 50 nM, 100 nM, and 250 nM). Representative data are shown in FIGS. 2A and 2B, as well as the Tables below. […] Formal synergy analyses were performed using the Bliss independence score (where values greater than zero indicate greater than additive effect). […] The graph of FIG. 2A is a growth curve of the DU145 prostate cancer cells for the agents alone (decitabine and alisertib separately), a vehicle control, and the agents in combination (decitabine and alisertib together). […] Likewise, the graph of FIG. 2B is a growth curve of the A549 lung cancer cells for the agents alone (decitabine and alisertib separately), a vehicle control, and the agents in combination (decitabine and alisertib together). […] The synergy analysis of the combination of decitabine and alisertib was evaluated in a series of 18 cancer cell lines (9 prostate, 1 ovarian, 1 lung, 2 colon, 2 central nervous system, and 3 breast cancer cell lines) and 2 non-cancer cell models.

[10] = system: retinoic acid signaling pathway; assay: pRARE-luciferase reporter of retinoic acid signaling in PC-3 cells; type: cell-based, human; details: 72 hours; for RAR Reporter Activity, Average / RAR Reporter Activity, Trial 1 / RAR Reporter Activity, Trial 2 / RAR Reporter Activity, Trial 3 / RAR Reporter Activity, Trial 4 / RAR Reporter Activity, Trial 5 / RAR Reporter Activity, Trial 6: KCC-08 10 μM, isotretinoin 5 μM, vehicle average 1.00
Protocol: To determine whether MBD2 protein inhibitors triggered retinoic acid signaling pathway activation, KCC-08 was administered to PC-3 human prostate cancer cells transfected with a heterologous reporter plasmid responsive to the presence of retinoic acid signaling (pRARE-luciferase), and the cells were used to assess reactivation of the retinoic acid response signaling pathway. The cancer cells were treated with a vehicle control or KCC-08 (10 μM) both with and without isotretinoin (5 μM) for 72 hours, and then assayed for luciferase reporter production.

[11] = system: PC-3 cancer cells; assay: Clonogenic survival; type: cell-based, human; details: 72 hours treatment, colonies ten days later, vehicle control 100.00, 12-27 replicates
Protocol: To assay for cancer clonogenic survival, PC-3 cancer cells were seeded into 6-well plates at 5,000 cells/well and allowed to attach overnight. Next, the cells were treated for 72 hours with vehicle control or KCC-08, both with and without isotretinoin, washed three times with phosphate-buffered saline, and then placed back into complete growth medium. Ten days later, colonies founded by surviving cells were detected using crystal violet staining.

[12] = system: PC-3 xenograft tumors; assay: PC-3 xenograft growth suppression; type: in vivo, Male Fox1-nude mice; details: KCC-08 i.p. 1 then 0.5 mg/kg, isotretinoin oral 30 mg/kg
Protocol: For cancer xenograft growth suppression, one million human PC-3 prostate cancer cells were suspended in Matrigel and inoculated into the flanks of Male Fox1-nude mice provided by Jackson Laboratory (Bar Harbor, ME). When the resultant xenograft tumors were measurable two weeks later, the tumor-bearing mice were treated with KCC-08, given by intraperitoneal infection in saline for 5 of 7 days at 1 mg/kg for week 1 and then 0.5 mg/kg for 5 of 7 days for week 2. Isotretinoin was given by oral gavage in peanut oil at 30 mg/kg for the same 5 of 7 days as the KCC-08 for weeks 1 and 2. For week 3, isotretinoin was given by oral gavage in peanut oil at 30 mg/kg for 5 of 7 days, and KCC-08 was not administered. Tumors were measured 3 times a week for 3 weeks, and the volume was estimated by using the formula 4/3*Π*width*length*depth.

SMILES: Nc1ncn([C@H]2C[C@H](O)[C@@H](CO)O2)c(=O)n1 [decitabine, 5-aza-2′-deoxycytidine]
- Percent Growth Inhibition ([1]; DAC 50 nM): 0.04
- Percent Growth Inhibition ([1]; DAC 100 nM): 0.08
- Percent Growth Inhibition ([1]; DAC 250 nM): 0.77
- cell survival in tissue culture ([1]; low dose decitabine 100 nM): most of the cells survived
- percent of CpG Satellite 2 methylation [2]: 33.33%
- DNMT1 levels [3]: significantly reduced
- Percent Growth Inhibition ([4]; DAC 50 nM): 0.16
- Percent Growth Inhibition ([4]; DAC 100 nM): 0.30
- Percent Growth Inhibition ([4]; DAC 250 nM): 0.29
- Fold Change in Tumor Size, Mean ([5]; week 0): 1
- Fold Change in Tumor Size, Mean ([5]; week 1): 1.31
- Fold Change in Tumor Size, Mean ([5]; week 2): 1.90
- Fold Change in Tumor Size, Mean ([5]; week 3): 2.68
- Fold Change in Tumor Size, Mean ([5]; week 4): 3.81
- Fold Change in Tumor Size, Mean ([5]; week 5): 4.60
- Fold Change in Tumor Size, Mean ([5]; week 6): 5.10
- Fold Change in Tumor Size, Mean ([5]; week 7): 5.49
- tumor growth (FIG. 5A) ([5]; decitabine alone, alisertib high and low dose alone, combinations concurrent or primed, low and high dose alisertib): continued to grow at a significant rate
- xenograft tissue growth or survival compared to the vehicle control ([5]; single agent therapy at the doses tested (decitabine 0.75 mg/kg; alisertib 15 or 25 mg/kg)): did not significantly alter
- AURKA protein levels [6]: significantly induce
- Caspase 3A staining (apoptosis) [7]: almost no alteration
- KI-67 staining (cell proliferation) [7]: almost no alteration
- DNMT3B levels [8]: did not significantly alter
- Percent Growth Inhibition ([9]; DAC 50 nM): 0.03
- Percent Growth Inhibition ([9]; DAC 100 nM): 0
- Percent Growth Inhibition ([9]; DAC 250 nM): 0.14

SMILES: Cn1c2ccccc2n2cc(-c3ccc([N+](=O)[O-])cc3)nc12 [KCC-08]
- luciferase activity / retinoic acid signaling pathway activation ([10]; KCC-08 10 μM with or without isotretinoin 5 μM): enhanced
- RAR Reporter Activity, Average [10]: 2.24
- RAR Reporter Activity, Trial 1 [10]: 2.08
- RAR Reporter Activity, Trial 2 [10]: 2.31
- RAR Reporter Activity, Trial 3 [10]: 1.96
- RAR Reporter Activity, Trial 4 [10]: 2.46
- RAR Reporter Activity, Trial 5 [10]: 2.36
- RAR Reporter Activity, Trial 6 [10]: 2.28
- Clonogenic Survival Relative to Control, Average [11]: 96.86
- Percent average xenograft tumor volume relative to baseline, Average ([12]; Day 1): 100%
- Percent average xenograft tumor volume relative to baseline, Average ([12]; Day 4): 151.16%
- Percent average xenograft tumor volume relative to baseline, Average ([12]; Day 8): 223.22%
- Percent average xenograft tumor volume relative to baseline, Average ([12]; Day 11): 250.94%
- Percent average xenograft tumor volume relative to baseline, Average ([12]; Day 15): 338.37%
- Percent average xenograft tumor volume relative to baseline, Average ([12]; Day 18): 406.04%
- Percent average xenograft tumor volume relative to baseline, Average ([12]; Day 22): 452.09%

SMILES: CC1=C(/C=C/C(C)=C/C=C/C(C)=C\C(=O)O)C(C)(C)CCC1 [Isotretinoin, isotretinoin]
- RAR Reporter Activity, Average [10]: 1.57
- RAR Reporter Activity, Trial 1 [10]: 1.66
- RAR Reporter Activity, Trial 2 [10]: 1.77
- RAR Reporter Activity, Trial 3 [10]: 1.62
- RAR Reporter Activity, Trial 4 [10]: 1.42
- RAR Reporter Activity, Trial 5 [10]: 1.47
- RAR Reporter Activity, Trial 6 [10]: 1.46
- Clonogenic Survival Relative to Control, Average [11]: 96.62
- Percent average xenograft tumor volume relative to baseline, Average ([12]; Day 1): 100%
- Percent average xenograft tumor volume relative to baseline, Average ([12]; Day 4): 161.09%
- Percent average xenograft tumor volume relative to baseline, Average ([12]; Day 8): 238.81%
- Percent average xenograft tumor volume relative to baseline, Average ([12]; Day 11): 315.81%
- Percent average xenograft tumor volume relative to baseline, Average ([12]; Day 15): 394.27%
- Percent average xenograft tumor volume relative to baseline, Average ([12]; Day 18): 488.75%
- Percent average xenograft tumor volume relative to baseline, Average ([12]; Day 22): 522.19%
